Experimental findings from US10800754B2, “Heterocyclic amide compound” (TAKEDA PHARMACEUTICAL COMPANY LIMITED, priority 2016, dated 2020) are described below.

In test [1] the target is T1, human PRS protein (Homo sapiens, UniProt P07814).
T1 construct: to construct His-Avi-hEPRS (998-1512) expression plasmid; His tag (N); Avi tag (N); TEV cleavage site (ENLYFQ/GS, encoded by forward primer hEPRS-TEV-NheF) (N); made in house; host or cells: E. coli BL21(DE3)
T1 sequence (P07814 998-1512): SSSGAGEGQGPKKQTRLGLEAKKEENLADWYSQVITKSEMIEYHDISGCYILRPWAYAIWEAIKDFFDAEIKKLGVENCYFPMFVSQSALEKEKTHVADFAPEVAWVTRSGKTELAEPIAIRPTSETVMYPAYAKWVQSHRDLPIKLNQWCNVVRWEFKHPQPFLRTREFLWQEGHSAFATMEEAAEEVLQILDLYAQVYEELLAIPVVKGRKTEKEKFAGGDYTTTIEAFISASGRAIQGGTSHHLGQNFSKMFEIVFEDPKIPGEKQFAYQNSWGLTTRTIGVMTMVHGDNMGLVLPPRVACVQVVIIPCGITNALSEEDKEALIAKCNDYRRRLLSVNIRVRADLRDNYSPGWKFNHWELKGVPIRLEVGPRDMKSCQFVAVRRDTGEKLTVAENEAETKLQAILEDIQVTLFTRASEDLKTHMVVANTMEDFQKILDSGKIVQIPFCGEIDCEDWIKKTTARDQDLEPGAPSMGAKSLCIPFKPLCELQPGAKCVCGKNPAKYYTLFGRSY
Nature of the test: PRS inhibitory activity (ATP/[32P]pyrophosphate exchange enzyme reaction). Format: biochemical. Conditions: 300 nM test compound; recombinant human PRS (EPRS 998-1512); read-out: inhibitory rate (%) of PRS. On the procedure: The PRS inhibitory activity of the compounds of the present invention was evaluated by the following method.
An expression plasmid of Catalytic Domain of human EPRS was obtained by PCR using human skeletal muscle cDNA Library (Takara Bio Inc.) as a template and 2 kinds of Primers 5′-[…]-3′ (hEPRS-TEV-NheF) (SEQ ID NO: 1) and 5′-[…]-3′ (hEPRS-St-Not-R) (SEQ ID NO: 2). PCR was performed using PrimeStar GXL DNA Polymerase (Takara Bio Inc.) and included (1) 98° C., 1 min, (2) cycles of 98° C., 10 sec, 65° C., 10 sec, 72° C., 1 min, and (3) reaction at 72° C., 1 min. This was cleaved with Nhe I and Not I (Takara Bio Inc.) and inserted using Ligation High (TOYOBO CO., LTD.) into the Nhe I/Not I site of pET21a (Novagen) with His-Avitag inserted thereinto. This was introduced into ECOS JM109 (NIPPON GENE CO., LTD.) to construct His-Avi-hEPRS (998-1512) expression plasmid.
Recombinant human PRS protein was prepared by transforming the His-Avi-hEPRS (998-1512) expression plasmid prepared above into ECOS Competent E. coli BL21(DE3) (NIPPON GENE CO., LTD.). Escherichia coli obtained by transformation was inoculated into 300 mL of LB medium (1% peptone, 0.5% yeast extract, 0.5% sodium chloride, 0.01% ampicillin) and cultured at 30° C. for 16 hr. The obtained culture medium was transferred into a jar culture tank charged with 6 L of the main fermentation medium (0.3% potassium dihydrogen phosphate, 0.6% disodium hydrogen phosphate, 0.1% ammonium chloride, 0.05% sodium chloride, 0.024% magnesium sulfate, 0.02% NEWPOL LB-625, 1.5% sorbitol, 1.5% casamino acid, 0.5% yeast extract, 0.01% ampicillin) and culturing was started at 37° C., quantity of airflow 5 L/min, stirring rotating speed 400 rpm. At the time point when the turbidity of the culture medium reached about 550 Klett units, the culture temperature was lowered to 16° C., isopropyl-β-D-thiogalactopyranoside (IPTG) was added to the final concentration 0.1 mM, and culturing was performed for another 16 hr to induce expression of human PRS. After completion of culturing, the culture medium was centrifuged at 5,000 rpm for 10 min. The obtained human PRS expressing Escherichia coli was suspended in a buffer containing 50 mM Tris-HCl (pH 8.0), 150 mM NaCl, 1 mM DTT, 5 U/ml Benzonase, 20 mM Imidazole and sonicated using Sonifier (BRANSON). The homogenate was centrifuged (33,000×G, 60 min, Beckman Coulter), the obtained supernatant was subjected to adsorption by passage through Ni-NTA Superflow (QIAGEN) column equilibrated in advance with 50 mM Tris-HCl (pH 8.0), 300 mM NaCl, 1 mM DTT, and elution was performed with a buffer containing 50 mM Tris-HCl (pH 8.0), 300 mM NaCl, 1 mM DTT, 250 mM Imidazole. Furthermore, gel filtration was performed using […] equilibrated in advance with a buffer containing 50 mM Tris-HCl (pH 8.0), 150 mM NaCl, 1 mM DTT, 10% glycerol to give purified human PRS protein. The protein concentration was measured using BCA Protein Assay Kit (PIERCE) and BSA as the standard.
A test compound was dissolved in 5 μL of an assay buffer (50 mM Tris-HCl (pH 7.5), 20 mM KCl, 1 mM DTT, 0.01% Tween 20) and incubated for 60 min with 5 μL of 40 nM human PRS protein dissolved in the assay buffer containing 40 mM MgCl2. An enzyme reaction of the human PRS protein was started by adding 10 μL of a substrate solution containing 300 μM ATP, 160 μM L-Proline, 400 μM pyrophosphate, [^32P]pyrophosphate (PerkinElmer, Waltham, Mass.) prepared to 1 MBq/mL. After incubation at room temperature for 30 min, the reaction was discontinued by adding 50 μL of discontinuation/washing solution (1M HCl, 200 mM sodium pyrophosphate) to the reaction mixture. The reaction solution was transferred to a filter plate (Merck Millipore, Billerica, Mass.) previously added with 200 μL of charcoal solution (0.5% HCl solution containing 10% charcoal (w/v)). […]

Test [2] has as its system human ovarian cancer cell A2780. Nature of the test: proliferation inhibitory activity against A2780 cells (CellTiter-Glo). Particulars: A2780, 72 h, 1 μM test compound, 3 days of culture, read-out: proliferation inhibitory rate (%) of A2780 cells. It counts as cell-based. As to the method:
The proliferation inhibitory activity of the compound of the present invention against human ovarian cancer cell A2780 was evaluated by the following method.
Human ovarian cancer cells A2780 were seeded in a 384 well culture plate at 1000 cells in 30 μL of medium per well by using RPMI-1640 medium (Wako Pure Chemical Industries, Ltd.) containing 10% fetal bovine serum and penicillin/streptomycin. The next day, 10 μL of RPMI-1640 medium containing the test compound was added to the cells. After 3 days of culture, 20 μL of CellTiter-Glo Luminescent Cell Viability Assay solution (Promega, Fitchburg, Wis., US) was added. The luminescence signal was measured using EnVision (PerkinElmer, Waltham, Mass., US) and the inhibitory rate (%) of the test compound was calculated with a well free of seeding of cell as 100% inhibition.

Each structure is given as a SMILES string.

In the case of `Cc1cc(N2CC[C@@](C#N)(C3CC3)C2=O)cc(NC(=O)Cc2ccccc2)n1` [Example 20, N-(4-((3S)-3-cyano-3-cyclopropyl-2-oxopyrrolidin-1-yl)-6-methylpyridin-2-yl)-2-phenylacetamide], in test [1], the inhibition at 0.3 µM turned out to be 94%. Moreover, the inhibition at 1 µM in test [2] was determined as 63%.

Consider `Cn1cc(-c2cccc(CC(=O)Nc3cc(N4CC[C@@](C#N)(C5CC5)C4=O)ccn3)c2)cn1` [Example 26, N-(4-((3S)-3-cyano-3-cyclopropyl-2-oxopyrrolidin-1-yl)pyridin-2-yl)-2-(3-(1-methyl-1H-pyrazol-4-yl)phenyl)acetamide], for which the inhibition at 0.3 µM in test [1] turned out to be 100%. Also, the inhibition at 1 µM in test [2] turned out to be 92%. As to `Cc1cc(N2CC[C@@](C#N)(C3CC3)C2=O)cc(NC(=O)Cc2cccc3ccccc23)n1` [Example 27, N-(4-((3S)-3-cyano-3-cyclopropyl-2-oxopyrrolidin-1-yl)-6-methylpyridin-2-yl)-2-(1-naphthyl)acetamide], the inhibition at 0.3 µM in test [1] came out at 97%. For the same compound, the inhibition at 1 µM in test [2] was found to be 74%.

For the compound `N#C[C@@]1(C2CC2)CCN(c2ccnc(NC(=O)Cc3cccc(-c4ccncc4)c3)c2)C1=O` [Example 29, N-(4-((3S)-3-cyano-3-cyclopropyl-2-oxopyrrolidin-1-yl)pyridin-2-yl)-2-(3-(pyridin-4-yl)phenyl)acetamide], the inhibition at 0.3 µM in test [1] is 97%. The inhibition at 1 µM in test [2] was found to be 60%. `Cc1cc(N2CC[C@@](C#N)(C3CC3)C2=O)cc(NC(=O)Cc2cccc(-c3cnn(C)c3)c2)n1` [Example 30, N-(4-((3S)-3-cyano-3-cyclopropyl-2-oxopyrrolidin-1-yl)-6-methylpyridin-2-yl)-2-(3-(1-methyl-1H-pyrazol-4-yl)phenyl)acetamide]: the inhibition at 0.3 µM in test [1] was determined as 99%. In addition, the inhibition at 1 µM in test [2] worked out at 99%. For `Cn1cc(-c2cc(F)cc(CC(=O)Nc3cc(N4CC[C@@](C#N)(C5CC5)C4=O)ccn3)c2)cn1` [Example 35, N-(4-((3S)-3-cyano-3-cyclopropyl-2-oxopyrrolidin-1-yl)pyridin-2-yl)-2-(3-fluoro-5-(1-methyl-1H-pyrazol-4-yl)phenyl)acetamide], the inhibition at 0.3 µM in test [1] came to 102%. The inhibition at 1 µM in test [2] is 97%. With `CCn1cc(-c2cccc(CC(=O)Nc3cc(N4CC[C@@](C#N)(C5CC5)C4=O)ccn3)c2)cn1` [Example 37, N-(4-((3S)-3-cyano-3-cyclopropyl-2-oxopyrrolidin-1-yl)pyridin-2-yl)-2-(3-(1-ethyl-1H-pyrazol-4-yl)phenyl)acetamide], the inhibition at 0.3 µM in test [1] was 99%. Moreover, the inhibition at 1 µM in test [2] was 90%. For `N#C[C@@]1(C2CC2)CCN(c2ccnc(NC(=O)Cc3cccc(-c4cnn(CC(F)F)c4)c3)c2)C1=O` [Example 38, N-(4-((3S)-3-cyano-3-cyclopropyl-2-oxopyrrolidin-1-yl)pyridin-2-yl)-2-(3-(1-(2,2-difluoroethyl)-1H-pyrazol-4-yl)phenyl)acetamide], in test [1], the inhibition at 0.3 µM is 100%. Besides, in test [2], the inhibition at 1 µM stood at 88%. For `Cn1cc(-c2cccc(CC(=O)Nc3cc(N4CC[C@@](C#N)(C5CC5)C4=O)ccn3)c2)ccc1=O` [Example 41, N-(4-((3S)-3-cyano-3-cyclopropyl-2-oxopyrrolidin-1-yl)pyridin-2-yl)-2-(3-(1-methyl-6-oxo-1,6-dihydropyridin-3-yl)phenyl)acetamide], in that order: 101% and 72%. In the case of `N#C[C@@]1(C2CC2)CCN(c2ccnc(NC(=O)Cc3cccc(-c4cnn(C5CC5)c4)c3)c2)C1=O` [Example 42, N-(4-((3S)-3-cyano-3-cyclopropyl-2-oxopyrrolidin-1-yl)pyridin-2-yl)-2-(3-(1-cyclopropyl-1H-pyrazol-4-yl)phenyl)acetamide], the inhibition at 0.3 µM in test [1] is 100%. In addition, the inhibition at 1 µM in test [2] stood at 84%. Turning to `N#C[C@@]1(C2CC2)CCN(c2cc(NC(=O)Cc3ccccc3)ncn2)C1=O` [Example 127, N-(6-((3S)-3-cyano-3-cyclopropyl-2-oxopyrrolidin-1-yl)pyrimidin-4-yl)-2-phenylacetamide], the inhibition at 0.3 µM in test [1] is 65%. As for `N#C[C@@]1(C2CC2)CCN(c2ccnc(NC(=O)Cc3cccc4ccccc34)n2)C1=O` [Example 128, N-(4-((3S)-3-cyano-3-cyclopropyl-2-oxopyrrolidin-1-yl)pyrimidin-2-yl)-2-(1-naphthyl)acetamide], the inhibition at 0.3 µM in test [1] turned out to be 95%.

For the compound `N#C[C@@]1(C2CC2)CCN(c2ccnc(NC(=O)Cc3cccc(Cl)c3)n2)C1=O` [Example 129, 2-(3-chlorophenyl)-N-(4-((3S)-3-cyano-3-cyclopropyl-2-oxopyrrolidin-1-yl)pyrimidin-2-yl)acetamide], the inhibition at 0.3 µM in test [1] is 87%.

For the compound `N#C[C@@]1(C2CC2)CCN(c2ccnc(NC(=O)Cc3ccc(Cl)s3)n2)C1=O` [Example 130, 2-(5-chloro-2-thienyl)-N-(4-((3S)-3-cyano-3-cyclopropyl-2-oxopyrrolidin-1-yl)pyrimidin-2-yl)acetamide], the inhibition at 0.3 µM in test [1] was 84%.

In the case of `Cc1cc(N2CC[C@@](C#N)(C3CC3)C2=O)nc(NC(=O)Cc2ccccc2)n1` [Example 131, N-(4-((3S)-3-cyano-3-cyclopropyl-2-oxopyrrolidin-1-yl)-6-methylpyrimidin-2-yl)-2-phenylacetamide], the inhibition at 0.3 µM in test [1] came out at 89%.
